In patent US11897880B2, “7,8-dihydrobenzo[e]pyrido[3,4-c]azocine-2,5(3H,6H)-dione derivatives useful as a factor XIa inhibitors” (Janssen Pharmaceutica NV, priority 2021, dated 2024):
Like-named read-outs stand apart in the source and are kept apart here.

What was measured:
human plasma kallikrein = human plasma kallikrein (Homo sapiens, UniProt P03952); assay: Kallikrein inhibition assay utilizing a quenched AMC peptide substrate (FLINT); assay type: biochemical; details: 30 min preincubation, 50 μM Z-Gly-Pro-Arg-AMC, 2 nM kallikrein
Sequence of human plasma kallikrein (P03952 391-638 limits assumed): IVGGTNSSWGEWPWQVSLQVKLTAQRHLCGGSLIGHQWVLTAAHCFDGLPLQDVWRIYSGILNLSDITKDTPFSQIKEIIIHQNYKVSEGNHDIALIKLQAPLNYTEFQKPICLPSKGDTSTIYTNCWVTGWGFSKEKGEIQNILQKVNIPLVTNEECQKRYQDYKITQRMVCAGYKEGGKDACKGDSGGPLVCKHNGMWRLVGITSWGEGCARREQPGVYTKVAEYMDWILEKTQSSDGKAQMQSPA
Sequence of human plasma kallikrein (P03952 20-390 partner limits assumed): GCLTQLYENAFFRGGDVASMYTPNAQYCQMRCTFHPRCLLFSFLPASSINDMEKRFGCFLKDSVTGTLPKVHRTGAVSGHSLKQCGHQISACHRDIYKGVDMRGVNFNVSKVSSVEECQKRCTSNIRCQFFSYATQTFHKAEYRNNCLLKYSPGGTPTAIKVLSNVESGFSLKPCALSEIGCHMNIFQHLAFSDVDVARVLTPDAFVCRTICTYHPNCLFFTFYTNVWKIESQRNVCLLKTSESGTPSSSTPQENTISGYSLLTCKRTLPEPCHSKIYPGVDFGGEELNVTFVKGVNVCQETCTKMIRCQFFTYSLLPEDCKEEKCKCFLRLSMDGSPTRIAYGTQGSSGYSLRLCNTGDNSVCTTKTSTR
How it was run: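 Human plasma kallikrein (2 nM final) was preincubated 30 min at room temperature with compound (11-point 3-fold dilution, top 1 μM, 2% DMSO) in pH 7.5 Tris buffer with CaCl2, BSA and CHAPS. Z-Gly-Pro-Arg-AMC (50 μM final) fluorescence was read at 340/440 nm every 5 min for 30 min. IC50 came from a 4-parameter logistic fit.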

Factor XIa = Factor XIa (Homo sapiens, UniProt P03951); assay: Factor XIa inhibition assay utilizing a fluorophore-quencher pair peptide substrate (FLINT); assay type: biochemical; details: for IC50: read-out: FXIa IC50; for Ki: read-out: FXIa Ki
Sequence of Factor XIa (P03951 388-625 limits assumed): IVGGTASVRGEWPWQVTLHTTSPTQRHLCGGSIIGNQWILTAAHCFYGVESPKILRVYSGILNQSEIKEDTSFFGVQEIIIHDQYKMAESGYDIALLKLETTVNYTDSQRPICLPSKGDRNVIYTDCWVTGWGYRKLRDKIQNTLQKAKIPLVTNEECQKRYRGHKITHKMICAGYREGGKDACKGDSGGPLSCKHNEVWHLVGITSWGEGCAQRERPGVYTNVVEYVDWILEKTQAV
Sequence of Factor XIa (P03951 19-387 partner limits assumed): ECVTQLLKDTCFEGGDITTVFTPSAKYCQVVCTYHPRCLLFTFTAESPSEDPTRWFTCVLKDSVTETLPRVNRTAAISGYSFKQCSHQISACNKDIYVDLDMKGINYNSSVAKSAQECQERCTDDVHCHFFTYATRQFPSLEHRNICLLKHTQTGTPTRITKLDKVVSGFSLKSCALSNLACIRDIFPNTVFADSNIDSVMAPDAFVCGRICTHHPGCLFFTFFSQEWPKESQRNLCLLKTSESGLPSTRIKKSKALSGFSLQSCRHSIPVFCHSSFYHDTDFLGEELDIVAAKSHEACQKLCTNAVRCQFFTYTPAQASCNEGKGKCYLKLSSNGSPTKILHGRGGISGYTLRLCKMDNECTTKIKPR
How it was run: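 Enzyme preincubated 30 min at room temperature with compound (11-point 3-fold dilution, top 100 nM, 2% DMSO), then 15 μM 5Fam-KLTRAETV-K5Tamra substrate added. Buffer: 50 mM Tris pH 7.5, 100 mM NaCl, 5 mM CaCl2, 0.1 mg/mL BSA, 0.03% CHAPS. Fluorescence (485/520 nm) read kinetically over 30 min; IC50 from 4-parameter logistic fit.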

[1] = 30 min preincubation, 5Fam-KLTRAETV-K5Tamra substrate 15 μM final, kinetic reads
[2] = cells that print μM themselves in the nM column, same assay conditions
[3] = cells that print μM themselves in the nM column

SMILES	IC50 (human plasma kallikrein)	IC50 (Factor XIa; [1])	Ki (Factor XIa)	IC50 (Factor XIa; [2])	Ki (Factor XIa; [3])
Nc1ccc(-c2cnc([C@@H]3CCc4c5c(cc(=O)n43)-c3c(ccc(Cl)c3F)CC3(CCCC3)NC5=O)[nH]2)c(F)n1 (stereo in doubt) [Compound 35, (S*)-12-(5-(6-amino-2-fluoropyridin-3-yl)-1H-imidazol-2-yl)-7-chloro-8-fluoro-13,14-dihydro-2H-spiro[benzo[5,6]azocino[4,3-g]indolizine-3,1′-cyclopentane]-1,10(4H,12H)-dione]	90 nM	0.0004 µM	0.0002 µM		
O=C1NC2(CC2)Cc2ccc(Cl)c(F)c2-c2cc(=O)n(C(CC3CC3)c3ncc(-c4ccc(F)cc4)[nH]3)cc21 (single isomer, unassigned) [Compound 64, (R*)-11-chloro-3-(2-cyclopropyl-1-(5-(4-fluorophenyl)-1H-imidazol-2-yl)ethyl)-12-fluoro-3H-spiro[benzo[e]pyrido[3,4-c]azocine-7,1′-cyclopropane]-2,5(6H,8H)-dione]	> 10000 nM		0.564 µM	1.13 µM	
O=C1NC2(CC2)Cc2ccc(Cl)c(F)c2-c2cc(=O)n(C(CC3CC3)c3ncc(-c4ccc(F)cc4)[nH]3)cc21 (single isomer, unassigned) [Compound 65, (S*)-11-chloro-3-(2-cyclopropyl-1-(5-(4-fluorophenyl)-1H-imidazol-2-yl)ethyl)-12-fluoro-3H-spiro[benzo[e]pyrido[3,4-c]azocine-7,1′-cyclopropane]-2,5(6H,8H)-dione]	5720 nM	0.102 µM	0.0508 µM		
Cn1ncc(-c2cnc(C(CC3CC3)n3cc4c(cc3=O)-c3c(ccc(Cl)c3F)CC3(CC3)NC4=O)[nH]2)cc1=O (single isomer, unassigned) [Compound 59, (S*)-11-chloro-3-(2-cyclopropyl-1-(5-(1-methyl-6-oxo-1,6-dihydropyridazin-4-yl)-1H-imidazol-2-yl)ethyl)-12-fluoro-3H-spiro[benzo[e]pyrido[3,4-c]azocine-7,1′-cyclopropane]-2,5(6H,8H)-dione]	> 10000 nM			4.39 µM	2.19 µM
Nc1ccc(-c2cnc(C3CCc4c5c(cc(=O)n43)-c3c(ccc(Cl)c3F)-c3ccccc3NC5=O)[nH]2)c(F)n1 (single isomer, unassigned) [Compound 39, (S*)-3-(5-(6-amino-2-fluoropyridin-3-yl)-1H-imidazol-2-yl)-8-chloro-7-fluoro-2,3-dihydrodibenzo[5,6:7,8]azocino[4,3-g]indolizine-5,16(1H,15H)-dione]	> 10000 nM			> 10 µM	> 5 µM
O=C1NC2(CC2)Cc2ccc(Cl)c(F)c2-c2cc(=O)n3c(c21)CC[C@@H]3c1ncc(-c2ccc3[nH]ncc3c2)[nH]1 (stereo in doubt) [Compound 19, (R*)-12-(5-(1H-indazol-5-yl)-1H-imidazol-2-yl)-7-chloro-8-fluoro-13,14-dihydro-2H-spiro[benzo[5,6]azocino[4,3-g]indolizine-3,1′-cyclopropane]-1,10(4H,12H)-dione]	20 nM	0.001 µM	0.0005 µM		
Nc1ccc(-c2cnc([C@H]3CCc4c5c(cc(=O)n43)-c3c(ccc(Cl)c3F)CC3(CCCC3)NC5=O)[nH]2)c(F)n1 (stereo in doubt) [Compound 34, (R*)-12-(5-(6-amino-2-fluoropyridin-3-yl)-1H-imidazol-2-yl)-7-chloro-8-fluoro-13,14-dihydro-2H-spiro[benzo[5,6]azocino[4,3-g]indolizine-3,1′-cyclopentane]-1,10(4H,12H)-dione]	6210 nM	0.0337 µM	0.0169 µM		
Nc1ccc(-c2cnc(C3CCc4c5c(cc(=O)n43)-c3c(ccc(Cl)c3F)CC3(CC3)NC5=O)[nH]2)c(F)n1 (single isomer, unassigned) [Compound 55]	90 nM	0.0003 µM	0.0001 µM		
Nc1ccc(-c2cnc([C@@H]3CCc4c5c(cc(=O)n43)-c3c(ccc(Cl)c3F)CC3(CC3)N(CCO)C5=O)[nH]2)c(F)n1 (single isomer, unassigned) [Compound 9, (S*)-12-(5-(6-amino-2-fluoropyridin-3-yl)-1H-imidazol-2-yl)-7-chloro-8-fluoro-2-(2-hydroxyethyl)-13,14-dihydro-2H-spiro[benzo[5,6]azocino[4,3-g]indolizine-3,1′-cyclopropane]-1,10(4H,12H)-dione]	> 10000 nM			6.58 µM	3.29 µM
Nc1ccc(-c2cnc(C3CCc4c5c(cc(=O)n43)-c3c(ccc(Cl)c3F)-c3ccncc3NC5=O)[nH]2)c(F)n1 (single isomer, unassigned) [Compound 37, (R*)-3-(5-(6-amino-2-fluoropyridin-3-yl)-1H-imidazol-2-yl)-8-chloro-7-fluoro-2,3-dihydrobenzo[5,6]pyrido[4′,3′:7,8]azocino[4,3-g]indolizine-5,16(1H,15H)-dione]	3950 nM	~0.078 µM	~0.0391 µM		
O=C1NC2(CC2)Cc2ccc(Cl)c(F)c2-c2cc(=O)n3c(c21)CC[C@@H]3c1ncc(-c2ccn3cnnc3c2)[nH]1 (stereo in doubt) [Compound 18, (R*)-12-(5-([1,2,4]triazolo[4,3-a]pyridin-7-yl)-1H-imidazol-2-yl)-7-chloro-8-fluoro-13,14-dihydro-2H-spiro[benzo[5,6]azocino[4,3-g]indolizine-3,1′-cyclopropane]-1,10(4H,12H)-dione]	820 nM	0.0132 µM	0.0066 µM		
CC1(C)Cc2ccc(Cl)c(F)c2-c2cc(=O)n3c(c2C(=O)N1)CC[C@H]3c1ncc(-c2ccc(N)nc2F)[nH]1 (single isomer, unassigned) [Compound 29, (S*)-12-(5-(6-amino-2-fluoropyridin-3-yl)-1H-imidazol-2-yl)-7-chloro-8-fluoro-3,3-dimethyl-3,4,13,14-tetrahydrobenzo[5,6]azocino[4,3-g]indolizine-1,10(2H,12H)-dione]	350 nM	0.0008 µM	0.0004 µM		
COCCN1C(=O)c2c(cc(=O)n3c2CC[C@@H]3c2ncc(-c3ccc(N)nc3F)[nH]2)-c2c(ccc(Cl)c2F)CC12CC2 (stereo in doubt) [Compound 24, (R*)-12-(5-(6-amino-2-fluoropyridin-3-yl)-1H-imidazol-2-yl)-7-chloro-8-fluoro-2-(2-methoxyethyl)-13,14-dihydro-2H-spiro[benzo[5,6]azocino[4,3-g]indolizine-3,1′-cyclopropane]-1,10(4H,12H)-dione]	> 10000 nM	> 0.01 µM			> 5 µM
O=C1NC2(CC2)Cc2ccc(Cl)c(F)c2-c2cc(=O)n3c(c21)CC[C@@H]3c1ncc(-c2ccc3[nH]ccc3c2)[nH]1 (single isomer, unassigned) [Compound 17, (R*)-12-(5-(1H-indol-5-yl)-1H-imidazol-2-yl)-7-chloro-8-fluoro-13,14-dihydro-2H-spiro[benzo[5,6]azocino[4,3-g]indolizine-3,1′-cyclopropane]-1,10(4H,12H)-dione]	> 10000 nM		0.796 µM	1.59 µM	
Nc1ccc(-c2cnc([C@H]3CCc4c5c(cc(=O)n43)-c3c(ccc(Cl)c3F)CCNC5=O)[nH]2)c(Cl)n1 (stereo in doubt) [Compound 48, (R*)-12-(5-(6-amino-2-chloropyridin-3-yl)-1H-imidazol-2-yl)-7-chloro-8-fluoro-3,4,13,14-tetrahydrobenzo[5,6]azocino[4,3-g]indolizine-1,10(2H,12H)-dione]	210 nM	0.0023 µM	0.0012 µM		
Cn1cncc1-c1cnc([C@@H]2CCc3c4c(cc(=O)n32)-c2c(ccc(Cl)c2F)CC2(CC2)NC4=O)[nH]1 (stereo in doubt) [Compound 50, (S*)-7-chloro-8-fluoro-12-(3′-methyl-3H,3′H-[4,4′-biimidazol]-2-yl)-13,14-dihydro-2H-spiro[benzo[5,6]azocino[4,3-g]indolizine-3,1′-cyclopropane]-1,10(4H,12H)-dione]	> 20000 nM	0.301 µM	0.15 µM		
O=C1NC2(CC2)Cc2ccc(Cl)c(F)c2-c2cc(=O)n(C(CC3CC3)c3ncc(-c4ccncc4)[nH]3)cc21 (single isomer, unassigned) [Compound 66, (R*)-11-chloro-3-(2-cyclopropyl-1-(5-(pyridin-4-yl)-1H-imidazol-2-yl)ethyl)-12-fluoro-3H-spiro[benzo[e]pyrido[3,4-c]azocine-7,1′-cyclopropane]-2,5(6H,8H)-dione]	> 10000 nM	0.183 µM	0.0917 µM		
O=C1NC2(CC2)Cc2ccc(Cl)c(F)c2-c2cc(=O)n3c(c21)CC[C@H]3c1ncc(-c2ccn3ccnc3c2)[nH]1 (stereo in doubt) [Compound 7, (S*)-7-chloro-8-fluoro-12-(5-(imidazo[1,2-a]pyridin-7-yl)-1H-imidazol-2-yl)-13,14-dihydro-2H-spiro[benzo[5,6]azocino[4,3-g]indolizine-3,1′-cyclopropane]-1,10(4H,12H)-dione]	420 nM	0.0023 µM	0.0011 µM		
Cn1nncc1-c1cnc([C@@H]2CCc3c4c(cc(=O)n32)-c2c(ccc(Cl)c2F)CC2(CC2)NC4=O)[nH]1 (stereo in doubt) [Compound 42, (S*)-7-chloro-8-fluoro-12-(5-(1-methyl-1H-1,2,3-triazol-5-yl)-1H-imidazol-2-yl)-13,14-dihydro-2H-spiro[benzo[5,6]azocino[4,3-g]indolizine-3,1′-cyclopropane]-1,10(4H,12H)-dione]	> 10000 nM	0.928 µM	0.464 µM		
